In PubChem BioAssay (NCI):
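Values below derive from 48-hour exposures of cells grown in 96-well plates, with endpoints linearly interpolated between the two concentrations bracketing the appropriate inhibition level. GI50 marks 50% less growth. TGI marks complete inhibition of growth.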

Legend:
Test in all cases: inhibition of tumour cell growth, NCI panel, 48 h
[1] = system: 786-0 renal
[2] = system: A498 renal
[3] = system: A549 NSCLC
[4] = system: ACHN renal
[5] = system: BT-549 breast
[6] = system: CAKI-1 renal
[7] = system: CCRF-CEM leukemia
[8] = system: COLO 205 colon
[9] = system: DU-145 prostate
[10] = system: EKVX NSCLC
[11] = system: HCC-2998 colon
[12] = system: HCT-116 colon
[13] = system: HCT-15 colon
[14] = system: HL-60(TB) leukemia
[15] = system: HOP-62 NSCLC
[16] = system: HOP-92 NSCLC
[17] = system: HS 578T breast
[18] = system: HT29 colon
[19] = system: IGROV1 ovarian
[20] = system: K-562 leukemia
[21] = system: KM12 colon
[22] = system: LOX IMVI melanoma
[23] = system: M14 melanoma
[24] = system: MALME-3M melanoma
[25] = system: MCF7 breast
[26] = system: MDA-MB-435
[27] = system: MDA-MB-468 breast
[28] = system: MOLT-4 leukemia

CC[C@]12C=CCN3CC[C@@]4(c5ccc(OC)cc5N(C)[C@H]4[C@@](O)(C(=O)OC)[C@@H]1OC(=O)CCCC[P+](c1ccc(F)cc1)(c1ccc(F)cc1)c1ccc(F)cc1)[C@@H]32
GI50 [1]: 34.1 µM | TGI [1]: > 100 µM | GI50 [2]: > 100 µM | TGI [2]: > 100 µM | GI50 [3]: 33.8 µM | TGI [3]: > 100 µM | GI50 [4]: > 100 µM | TGI [4]: > 100 µM | GI50 [5]: 12.9 µM | TGI [5]: 27.1 µM | GI50 [6]: > 100 µM | TGI [6]: > 100 µM | GI50 [7]: 13.6 µM | TGI [7]: 30.3 µM | GI50 [8]: 4.63 µM | TGI [8]: 16.4 µM | GI50 [9]: 35.4 µM | TGI [9]: > 100 µM | GI50 [10]: 21 µM | TGI [10]: > 100 µM | GI50 [11]: 12.5 µM | TGI [11]: 25.5 µM | GI50 [12]: 25.9 µM | TGI [12]: > 100 µM | GI50 [13]: > 100 µM | TGI [13]: > 100 µM | GI50 [14]: 2.11 µM | TGI [14]: 13.2 µM | GI50 [15]: 25.5 µM | TGI [15]: 73.4 µM | GI50 [16]: 6.32 µM | TGI [16]: 23.5 µM | GI50 [17]: 16.9 µM | TGI [17]: 37.5 µM | GI50 [18]: 15.4 µM | TGI [18]: 38.8 µM | GI50 [19]: 10.8 µM | TGI [19]: 24.3 µM | GI50 [20]: 11.3 µM | TGI [20]: 38.7 µM | GI50 [21]: 13.4 µM | TGI [21]: 27.7 µM | GI50 [22]: 16.8 µM | TGI [22]: 30.8 µM | GI50 [23]: 14.7 µM | TGI [23]: 30 µM | GI50 [24]: 13.5 µM | TGI [24]: 27.3 µM | GI50 [25]: 11.5 µM | TGI [25]: 24.5 µM | GI50 [26]: 12.9 µM | TGI [26]: 28.4 µM | GI50 [27]: 2.61 µM | TGI [27]: 11.1 µM | GI50 [28]: 14.7 µM
